Data on 4 compounds can be found in article PMC10307805, “DprE2 is a molecular target of the anti-tubercular nitroimidazole compounds pretomanid and delamanid” (Nature Communications, 2023).

Common to all, as to format: biochemical
Experiment [1] addresses T1, DprE2 (decaprenylphosphoryl-2-keto-β-D-erythro-pentose reductase) (Mycobacterium tuberculosis, UniProt P9WGS9). The experiment can be described thus: […]; also IC50 […] and radiolabeled DPR epimerization TLC.
The target of experiment [2] is DprE1 (decaprenylphosphoryl-β-D-ribose oxidase) (Mycobacterium tuberculosis, UniProt P9WJF1). The experiment can be described thus: resazurin reduction fluorescence assay with GGPR (also […] on Mt-DprE1-DprE2 complex). For orientation: The colour change of resazurin is a common sign of viable cells or microbes.
DprE1 (decaprenylphosphoryl-β-D-ribose oxidase), sequence (P9WJF1 whole entry): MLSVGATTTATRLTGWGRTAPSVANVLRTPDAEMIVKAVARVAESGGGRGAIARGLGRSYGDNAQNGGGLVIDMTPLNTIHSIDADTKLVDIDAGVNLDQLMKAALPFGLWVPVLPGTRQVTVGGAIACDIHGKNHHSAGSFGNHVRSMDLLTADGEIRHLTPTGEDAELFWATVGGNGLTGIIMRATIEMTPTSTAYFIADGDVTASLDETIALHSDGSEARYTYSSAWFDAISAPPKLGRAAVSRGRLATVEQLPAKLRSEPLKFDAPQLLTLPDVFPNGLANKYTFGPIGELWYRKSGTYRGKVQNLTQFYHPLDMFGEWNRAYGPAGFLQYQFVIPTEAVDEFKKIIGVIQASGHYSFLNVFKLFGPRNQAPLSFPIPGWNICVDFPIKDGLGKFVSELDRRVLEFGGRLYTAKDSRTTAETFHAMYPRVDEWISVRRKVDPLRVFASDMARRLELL
In experiment [3] the target is T2, Ddn (deazaflavin F420-dependent nitroreductase) (Mycobacterium tuberculosis, UniProt P9WP15).
T2 construct: recombinant Ddn, SUMO tag removed
T2 sequence (P9WP15 whole entry): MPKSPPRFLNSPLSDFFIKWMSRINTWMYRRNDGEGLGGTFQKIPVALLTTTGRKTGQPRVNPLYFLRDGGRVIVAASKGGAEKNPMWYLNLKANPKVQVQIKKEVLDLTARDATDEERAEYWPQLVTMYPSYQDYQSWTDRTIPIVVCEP

Experiment [4] addresses T1, DprE2 (decaprenylphosphoryl-2-keto-β-D-erythro-pentose reductase).

T1 sequence (P9WGS9 whole entry, looked up): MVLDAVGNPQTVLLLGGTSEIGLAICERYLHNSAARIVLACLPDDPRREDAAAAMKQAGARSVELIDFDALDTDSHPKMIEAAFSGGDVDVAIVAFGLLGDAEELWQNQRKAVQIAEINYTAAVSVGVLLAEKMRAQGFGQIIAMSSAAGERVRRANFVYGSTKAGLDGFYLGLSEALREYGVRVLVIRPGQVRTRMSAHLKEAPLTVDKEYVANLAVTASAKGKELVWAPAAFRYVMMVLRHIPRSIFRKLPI

In experiment [1], Ddn-activated pretomanid registered an inhibitory constant (Ki) of 1.5 ± 0.4 µM.

In experiment [2], BTZ registered an IC50 of 11.8 ± 0.7 µM.

In the case of `O=[N+]([O-])c1cn2c(n1)OC[C@@H](OCc1ccc(OC(F)(F)F)cc1)C2` [pretomanid], the “pro-drug activation by purified Ddn with Fgd1/F420, read out by DprE2 inhibition” value in experiment [3] is reported as “upon activation of the pretomanid by Ddn, there was a dose-dependent reduction in Mt-DprE2 activity”.

As to `NC(=O)C1=CN([C@@H]2O[C@H](COP(=O)(O)OP(=O)(O)OC[C@H]3O[C@@H](n4cnc5c(N)ncnc54)[C@H](OP(=O)(O)O)[C@@H]3O)[C@@H](O)[C@H]2O)C=CC1` [NADPH], the “NADPH oxidation fluorescence assay with NADPH titration” value in experiment [4] is on record as “DprE2 activity was monitored through a change in fluorescence due to the oxidation of the DprE2 cofactor, NADPH”.

Broadly, the Ki is the dissociation constant of the complex between target and ligand, obtained from inhibition or displacement. The low end stands for tighter binding, the high end for weaker binding. The IC50 is the concentration at which inhibition is half-maximal. A high value points to lower potency.
